Key:
velvetleaf [1] = test: Test A postemergence; format: in vivo, Abutilon theophrasti
Procedure, shortened: (§1)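 Seeds were sown in a loam soil–sand blend and given a directed soil spray preemergence; postemergence plants at 2–10 cm, one- to two-leaf stage, were sprayed with compound in non-phytotoxic solvent with surfactant. After about 10 days in a greenhouse, injury was visually rated against untreated controls (0 = no effect, 100 = complete control).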

wheat [2] = test: Test A postemergence; format: in vivo, Triticum aestivum
Procedure, shortened: as §1

foxtail, giant [3] = test: Test C preemergence; format: in vivo, Setaria faberii; conditions: for Plant response rating (scale of 0 to 100), Foxtail, Giant: Preemergence, 250 g ai/ha; for Foxtail, Giant plant response rating: preemergence
Procedure, shortened: (§2)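 In this greenhouse assay, seeded soil (loam plus sand) or emerged seedlings in peat-vermiculite medium were treated with formulated compound. Roughly two weeks later (13–15 days), each species was scored visually relative to controls, from 0 for no effect to 100 for complete control.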

foxtail, giant [4] = test: Test C postemergence; format: in vivo, Setaria faberii; conditions: for Plant response rating (scale of 0 to 100 where 0 is no effect and 100 is complete control), Foxtail, Giant: Postemergence, 31 g ai/ha, visually evaluated after 13 to 15 days; for Foxtail, Giant plant response rating / Plant response rating, Foxtail, Giant: postemergence; for Foxtail, Giant plant response rating: 62 g ai/ha, scale 0 to 100
Procedure, shortened: as §2

corn [5] = test: Test C preemergence; format: in vivo, Zea mays; conditions: for Plant response rating (scale of 0 to 100), Corn: Preemergence, 250 g ai/ha; for Corn plant response rating: preemergence
Procedure, shortened: as §2

corn [6] = test: Test A postemergence; format: in vivo, Zea mays
Procedure, shortened: as §1

foxtail, giant [7] = test: Test A postemergence; format: in vivo, Setaria faberii
Procedure, shortened: as §1

velvetleaf [8] = test: Test C postemergence; format: in vivo, Abutilon theophrasti; conditions: for Plant response rating (scale of 0 to 100 where 0 is no effect and 100 is complete control), Velvetleaf: Postemergence, 31 g ai/ha, visually evaluated after 13 to 15 days; for Velvetleaf plant response rating / Plant response rating, Velvetleaf: postemergence; for Velvetleaf plant response rating: 62 g ai/ha, scale 0 to 100
Procedure, shortened: as §2

galium [9] = test: Test C preemergence; format: in vivo, Galium aparine; conditions: for Plant response rating (scale of 0 to 100), Galium: Preemergence, 250 g ai/ha; for Galium plant response rating: preemergence
Procedure, shortened: as §2

galium [10] = test: Test C postemergence; format: in vivo, Galium aparine; conditions: for Plant response rating (scale of 0 to 100 where 0 is no effect and 100 is complete control), Galium: Postemergence, 31 g ai/ha, visually evaluated after 13 to 15 days; for Galium plant response rating / Plant response rating, Galium: postemergence; for Galium plant response rating: 62 g ai/ha, scale 0 to 100
Procedure, shortened: as §2

morningglory = test: Test C postemergence; format: in vivo, Ipomoea coccinea; conditions: for Plant response rating (scale of 0 to 100 where 0 is no effect and 100 is complete control), Morningglory: Postemergence, 31 g ai/ha, visually evaluated after 13 to 15 days; for Morningglory plant response rating / Plant response rating, Morningglory: postemergence; for Morningglory plant response rating: 62 g ai/ha, scale 0 to 100
Procedure, shortened: as §2

soybean = test: Test C preemergence; format: in vivo, Glycine max; conditions: for Plant response rating (scale of 0 to 100), Soybean: Preemergence, 250 g ai/ha; for Soybean plant response rating: preemergence
Procedure, shortened: as §2

waterhemp = test: Test C preemergence; format: in vivo, Amaranthus rudis; conditions: for Plant response rating (scale of 0 to 100), Waterhemp: Preemergence, 250 g ai/ha; for Waterhemp plant response rating: preemergence
Procedure, shortened: as §2

kochia = test: Test C postemergence; format: in vivo, Kochia scoparia; conditions: for Plant response rating (scale of 0 to 100 where 0 is no effect and 100 is complete control), Kochia: Postemergence, 31 g ai/ha, visually evaluated after 13 to 15 days; for Kochia plant response rating / Plant response rating, Kochia: postemergence; for Kochia plant response rating: 62 g ai/ha, scale 0 to 100
Procedure, shortened: as §2

wheat [11] = test: Test C postemergence; format: in vivo, Triticum aestivum; conditions: for Plant response rating (scale of 0 to 100 where 0 is no effect and 100 is complete control), Wheat: Postemergence, 31 g ai/ha, visually evaluated after 13 to 15 days; for Wheat plant response rating / Plant response rating, Wheat: postemergence; for Wheat plant response rating: 62 g ai/ha, scale 0 to 100
Procedure, shortened: as §2

barnyardgrass = test: Test C postemergence; format: in vivo, Echinochloa crus-galli; conditions: for Plant response rating (scale of 0 to 100 where 0 is no effect and 100 is complete control), Barnyardgrass: Postemergence, 31 g ai/ha, visually evaluated after 13 to 15 days; for Barnyardgrass plant response rating / Plant response rating, Barnyardgrass: postemergence; for Barnyardgrass plant response rating: 62 g ai/ha, scale 0 to 100
Procedure, shortened: as §2

[12] = Postemergence, 500 g ai/ha, visual rating after approx. 10 days, 0 to 100 scale (0 no effect, 100 complete control)
[13] = postemergence, 125 g ai/ha, about 10 days, visual rating on 0 to 100 scale (0 no effect, 100 complete control)
[14] = 31 g ai/ha, visual rating, scale 0 to 100 (0 no effect, 100 complete control), 13 to 15 days
[15] = 62 g ai/ha, scale 0 to 100 (0 no effect, 100 complete control), 13 to 15 days
[16] = 125 g ai/ha, scale 0 to 100, 0 is no effect, 100 is complete control
[17] = 250 g ai/ha, scale 0 to 100 (0 no effect, 100 complete control)
[18] = 125 g ai/ha, scale 0 to 100, 0 no effect, 100 complete control

CCc1cc(C(=O)NCC(F)(F)F)nn1Cc1cc(C(F)(F)F)nn1C [Compound 108, 5-ethyl-1-[[1-methyl-3-(trifluoromethyl)-1H-pyrazole-5-yl]methyl]-N-(2,2,2-trifluoroethyl)-1H-pyrazole-3-carboxamide]
Velvetleaf plant response rating (velvetleaf [1]; [12]): 100
Velvetleaf plant response rating (velvetleaf [1]; [13]): 60
Wheat plant response rating (wheat [2]; [12]): 90
Wheat plant response rating (wheat [2]; [13]): 40
Plant response rating (scale of 0 to 100), Foxtail, Giant (foxtail, giant [3]): 100
Foxtail, Giant plant response rating (foxtail, giant [3]; [14]): 100
Foxtail, Giant plant response rating (foxtail, giant [3]; [15]): 100
Foxtail, Giant plant response rating (foxtail, giant [3]; [16]): 100
Plant response rating (scale of 0 to 100 where 0 is no effect and 100 is complete control), Foxtail, Giant (foxtail, giant [4]): 10
Foxtail, Giant plant response rating (foxtail, giant [4]): 30
Plant response rating, Foxtail, Giant (foxtail, giant [4]; [17]): 45
Plant response rating, Foxtail, Giant (foxtail, giant [4]; [18]): 40
Plant response rating (scale of 0 to 100), Corn (corn [5]): 95
Corn plant response rating (corn [5]; [14]): 5
Corn plant response rating (corn [5]; [15]): 30
Corn plant response rating (corn [5]; [16]): 95
Corn plant response rating (corn [6]; [12]): 100
Corn plant response rating (corn [6]; [13]): 80
Foxtail, Giant plant response rating (foxtail, giant [7]; [12]): 100
Foxtail, Giant plant response rating (foxtail, giant [7]; [13]): 90
Plant response rating (scale of 0 to 100 where 0 is no effect and 100 is complete control), Velvetleaf (velvetleaf [8]): 5
Velvetleaf plant response rating (velvetleaf [8]): 10
Plant response rating, Velvetleaf (velvetleaf [8]; [17]): 40
Plant response rating, Velvetleaf (velvetleaf [8]; [18]): 35
Plant response rating (scale of 0 to 100), Galium (galium [9]): 100
Galium plant response rating (galium [9]; [14]): 85
Galium plant response rating (galium [9]; [15]): 100
Galium plant response rating (galium [9]; [16]): 100
Plant response rating (scale of 0 to 100 where 0 is no effect and 100 is complete control), Galium (galium [10]): 60
Galium plant response rating (galium [10]): 60
Plant response rating, Galium (galium [10]; [17]): 90
Plant response rating, Galium (galium [10]; [18]): 80
Plant response rating (scale of 0 to 100 where 0 is no effect and 100 is complete control), Morningglory (morningglory): 50
Morningglory plant response rating (morningglory): 50
Plant response rating, Morningglory (morningglory; [17]): 90
Plant response rating, Morningglory (morningglory; [18]): 80
Plant response rating (scale of 0 to 100), Soybean (soybean): 98
Soybean plant response rating (soybean; [14]): 20
Soybean plant response rating (soybean; [15]): 90
Soybean plant response rating (soybean; [16]): 95
Plant response rating (scale of 0 to 100), Waterhemp (waterhemp): 100
Waterhemp plant response rating (waterhemp; [14]): 98
Waterhemp plant response rating (waterhemp; [15]): 100
Waterhemp plant response rating (waterhemp; [16]): 100
Plant response rating (scale of 0 to 100 where 0 is no effect and 100 is complete control), Kochia (kochia): 40
Kochia plant response rating (kochia): 60
Plant response rating, Kochia (kochia; [17]): 90
Plant response rating, Kochia (kochia; [18]): 80
Plant response rating (scale of 0 to 100 where 0 is no effect and 100 is complete control), Wheat (wheat [11]): 0
Wheat plant response rating (wheat [11]): 5
Plant response rating, Wheat (wheat [11]; [17]): 20
Plant response rating, Wheat (wheat [11]; [18]): 10
Plant response rating (scale of 0 to 100 where 0 is no effect and 100 is complete control), Barnyardgrass (barnyardgrass): 0
Barnyardgrass plant response rating (barnyardgrass): 0
Plant response rating, Barnyardgrass (barnyardgrass; [17]): 35
Plant response rating, Barnyardgrass (barnyardgrass; [18]): 5

CCCNC(=O)c1cc(CC)n(Cc2nc(C(F)(F)F)nn2C)n1 [Compound 109]
Velvetleaf plant response rating (velvetleaf [1]; [12]): 90
Velvetleaf plant response rating (velvetleaf [1]; [13]): 60
Wheat plant response rating (wheat [2]; [12]): 80
Wheat plant response rating (wheat [2]; [13]): 50
Plant response rating (scale of 0 to 100), Foxtail, Giant (foxtail, giant [3]): 100
Foxtail, Giant plant response rating (foxtail, giant [3]; [14]): 100
Foxtail, Giant plant response rating (foxtail, giant [3]; [15]): 100
Foxtail, Giant plant response rating (foxtail, giant [3]; [16]): 100
Plant response rating (scale of 0 to 100 where 0 is no effect and 100 is complete control), Foxtail, Giant (foxtail, giant [4]): 10
Foxtail, Giant plant response rating (foxtail, giant [4]): 10
Plant response rating, Foxtail, Giant (foxtail, giant [4]; [17]): 50
Plant response rating, Foxtail, Giant (foxtail, giant [4]; [18]): 45
Plant response rating (scale of 0 to 100), Corn (corn [5]): 100
Corn plant response rating (corn [5]; [14]): 25
Corn plant response rating (corn [5]; [15]): 85
Corn plant response rating (corn [5]; [16]): 95
Corn plant response rating (corn [6]; [12]): 90
Corn plant response rating (corn [6]; [13]): 80
Foxtail, Giant plant response rating (foxtail, giant [7]; [12]): 90
Foxtail, Giant plant response rating (foxtail, giant [7]; [13]): 90
Plant response rating (scale of 0 to 100 where 0 is no effect and 100 is complete control), Velvetleaf (velvetleaf [8]): 10
Velvetleaf plant response rating (velvetleaf [8]): 15
Plant response rating, Velvetleaf (velvetleaf [8]; [17]): 35
Plant response rating, Velvetleaf (velvetleaf [8]; [18]): 25
Plant response rating (scale of 0 to 100), Galium (galium [9]): 100
Galium plant response rating (galium [9]; [14]): 10
Galium plant response rating (galium [9]; [15]): 100
Galium plant response rating (galium [9]; [16]): 100
Plant response rating (scale of 0 to 100 where 0 is no effect and 100 is complete control), Galium (galium [10]): 50
Galium plant response rating (galium [10]): 50
Plant response rating, Galium (galium [10]; [17]): 80
Plant response rating, Galium (galium [10]; [18]): 65
Plant response rating (scale of 0 to 100 where 0 is no effect and 100 is complete control), Morningglory (morningglory): 65
Morningglory plant response rating (morningglory): 70
Plant response rating, Morningglory (morningglory; [17]): 85
Plant response rating, Morningglory (morningglory; [18]): 75
Plant response rating (scale of 0 to 100), Soybean (soybean): 98
Soybean plant response rating (soybean; [14]): 70
Soybean plant response rating (soybean; [15]): 95
Soybean plant response rating (soybean; [16]): 98
Plant response rating (scale of 0 to 100), Waterhemp (waterhemp): 100
Waterhemp plant response rating (waterhemp; [14]): 75
Waterhemp plant response rating (waterhemp; [15]): 100
Waterhemp plant response rating (waterhemp; [16]): 100
Plant response rating (scale of 0 to 100 where 0 is no effect and 100 is complete control), Kochia (kochia): 50
Kochia plant response rating (kochia): 75
Plant response rating, Kochia (kochia; [17]): 90
Plant response rating, Kochia (kochia; [18]): 90
Plant response rating (scale of 0 to 100 where 0 is no effect and 100 is complete control), Wheat (wheat [11]): 0
Wheat plant response rating (wheat [11]): 0
Plant response rating, Wheat (wheat [11]; [17]): 0
Plant response rating, Wheat (wheat [11]; [18]): 0
Plant response rating (scale of 0 to 100 where 0 is no effect and 100 is complete control), Barnyardgrass (barnyardgrass): 5
Barnyardgrass plant response rating (barnyardgrass): 5
Plant response rating, Barnyardgrass (barnyardgrass; [17]): 20
Plant response rating, Barnyardgrass (barnyardgrass; [18]): 10
